From the NIST ThermoML archive (doi:10.1021/je2007605)
± gives the expanded uncertainty stated by the source.

Assays:
[1] = for Normal melting temperature: DTA
[2] = Molar enthalpy of transition or fusion; conditions: Crystal; DSC

COC(=O)c1ccc(N(C)C)cc1 [methyl 4-(dimethylamino)benzoate]
vapor or sublimation pressure [kPa], [1]
Conditions | Crystal | Liquid
311.12 K, Calculated from knudsen effusion weight loss | 8.2e-05 ± 2e-05 | –
313.19 K, Calculated from knudsen effusion weight loss | 0.000104 ± 2e-05 | –
315.17 K, Calculated from knudsen effusion weight loss | 0.000131 ± 2.1e-05 | –
317.11 K, Calculated from knudsen effusion weight loss | 0.000166 ± 2.1e-05 | –
319.18 K, Calculated from knudsen effusion weight loss | 0.000211 ± 2.1e-05 | –
323.12 K, Calculated from knudsen effusion weight loss | 0.000332 ± 2.3e-05 | –
324.96 K, Closed cell (Static) method | 0.00043 ± 0.00011 | –
325.18 K, Calculated from knudsen effusion weight loss | 0.000421 ± 2.5e-05 | –
326.93 K, Closed cell (Static) method | 0.00053 ± 0.00011 | –
327.16 K, Calculated from knudsen effusion weight loss | 0.000525 ± 2.7e-05 | –
328.93 K, Closed cell (Static) method | 0.00068 ± 0.00011 | –
329.11 K, Calculated from knudsen effusion weight loss | 0.000662 ± 3.1e-05 | –
330.9 K, Closed cell (Static) method | 0.00084 ± 0.00012 | –
331.17 K, Calculated from knudsen effusion weight loss | 0.000829 ± 3.6e-05 | –
332.91 K, Closed cell (Static) method | 0.00105 ± 0.00012 | –
333.16 K, Calculated from knudsen effusion weight loss | 0.001019 ± 7.9e-05 | –
334.88 K, Closed cell (Static) method | 0.0013 ± 0.00012 | –
336.89 K, Closed cell (Static) method | 0.00161 ± 0.00013 | –
338.85 K, Closed cell (Static) method | 0.00199 ± 0.00014 | –
340.86 K, Closed cell (Static) method | 0.00246 ± 0.00015 | –
342.81 K, Closed cell (Static) method | 0.00298 ± 0.00017 | –
344.83 K, Closed cell (Static) method | 0.00365 ± 0.00019 | –
346.78 K, Closed cell (Static) method | 0.00447 ± 0.00021 | –
348.79 K, Closed cell (Static) method | 0.00542 ± 0.00024 | –
350.75 K, Closed cell (Static) method | 0.00655 ± 0.00028 | –
352.74 K, Closed cell (Static) method | 0.00799 ± 0.00034 | –
352.78 K, Closed cell (Static) method | – | 0.01105 ± 0.00045
354.73 K, Closed cell (Static) method | 0.0096 ± 0.00039 | –
354.77 K, Closed cell (Static) method | – | 0.01276 ± 0.00051
356.72 K, Closed cell (Static) method | 0.01168 ± 0.00047 | –
356.75 K, Closed cell (Static) method | – | 0.01475 ± 0.00054
358.69 K, Closed cell (Static) method | 0.01403 ± 0.00053 | –
358.73 K, Closed cell (Static) method | – | 0.01697 ± 0.00058
360.68 K, Closed cell (Static) method | 0.01658 ± 0.00057 | –
360.72 K, Closed cell (Static) method | – | 0.01953 ± 0.00062
362.67 K, Closed cell (Static) method | 0.01987 ± 0.00062 | –
362.7 K, Closed cell (Static) method | – | 0.02236 ± 0.00066
364.65 K, Closed cell (Static) method | 0.02318 ± 0.00067 | –
364.68 K, Closed cell (Static) method | – | 0.02563 ± 0.00071
366.61 K, Closed cell (Static) method | 0.02725 ± 0.00074 | –
366.67 K, Closed cell (Static) method | – | 0.02928 ± 0.00077
368.66 K, Closed cell (Static) method | 0.03255 ± 0.00082 | 0.03341 ± 0.00083
370.64 K, Closed cell (Static) method | – | 0.03797 ± 0.0009
372.62 K, Closed cell (Static) method | – | 0.04321 ± 0.00098
374.62 K, Closed cell (Static) method | – | 0.04885 ± 0.0011
376.56 K, Closed cell (Static) method | – | 0.05553 ± 0.0012
378.53 K, Closed cell (Static) method | – | 0.0627 ± 0.0013
380.52 K, Closed cell (Static) method | – | 0.07058 ± 0.0014
382.5 K, Closed cell (Static) method | – | 0.07972 ± 0.0015
384.49 K, Closed cell (Static) method | – | 0.08949 ± 0.0017
386.42 K, Closed cell (Static) method | – | 0.1006 ± 0.0019
388.46 K, Closed cell (Static) method | – | 0.1126 ± 0.0021
390.44 K, Closed cell (Static) method | – | 0.1259 ± 0.0023

Conditions | Normal melting temperature [°C]
[1], Crystal | 98.14 ± 0.39

Conditions | Molar enthalpy of transition or fusion [kcal/mol]
[2] | 5.59 ± 0.12

COC(=O)c1ccc(C)cc1 [methyl 4-methylbenzoate]
[1], Closed cell (Static) method
Conditions | vapor or sublimation pressure [kPa]
269.27 K, Crystal | 0.0004 ± 9e-05
271.21 K, Crystal | 0.00052 ± 0.0001
273.18 K, Crystal | 0.00067 ± 0.0001
275.19 K, Crystal | 0.00087 ± 0.0001
277.14 K, Crystal | 0.00112 ± 0.0001
279.16 K, Crystal | 0.00145 ± 0.00011
281.08 K, Crystal | 0.00184 ± 0.00012
283.07 K, Crystal | 0.00235 ± 0.00013
285.08 K, Crystal | 0.003 ± 0.00015
287.05 K, Crystal | 0.00377 ± 0.00018
289.04 K, Crystal | 0.00475 ± 0.00021
291.04 K, Crystal | 0.00599 ± 0.00026
293.03 K, Liquid | 0.01066 ± 0.00043
293.04 K, Crystal | 0.00745 ± 0.00031
295.02 K, Crystal | 0.00939 ± 0.00038
295.08 K, Liquid | 0.0127 ± 0.00051
297.03 K, Crystal | 0.01167 ± 0.00047
297.05 K, Liquid | 0.01498 ± 0.00054
299.02 K, Crystal | 0.01451 ± 0.00054
299.04 K, Liquid | 0.01755 ± 0.00058
300.98 K, Crystal | 0.01795 ± 0.00059
301.03 K, Liquid | 0.02057 ± 0.00063
303 K, Liquid | 0.02404 ± 0.00068
305.03 K, Liquid | 0.02784 ± 0.00074
306.98 K, Liquid | 0.03242 ± 0.00081
308.97 K, Liquid | 0.03825 ± 0.0009
310.97 K, Liquid | 0.0434 ± 0.00098
312.95 K, Liquid | 0.05065 ± 0.0011
314.97 K, Liquid | 0.05815 ± 0.0012
316.99 K, Liquid | 0.06735 ± 0.0014
318.9 K, Liquid | 0.07685 ± 0.0015
320.95 K, Liquid | 0.08945 ± 0.0017
322.94 K, Liquid | 0.1009 ± 0.0019
324.92 K, Liquid | 0.1171 ± 0.0021
326.96 K, Liquid | 0.132 ± 0.002
328.85 K, Liquid | 0.151 ± 0.0022
330.92 K, Liquid | 0.1689 ± 0.0024
332.84 K, Liquid | 0.1934 ± 0.0026
334.91 K, Liquid | 0.2162 ± 0.0028
336.82 K, Liquid | 0.2454 ± 0.003
338.88 K, Liquid | 0.2748 ± 0.0033
340.75 K, Liquid | 0.31 ± 0.0036
342.8 K, Liquid | 0.3469 ± 0.0039
344.71 K, Liquid | 0.3884 ± 0.0043
346.77 K, Liquid | 0.4353 ± 0.0047
348.75 K, Liquid | 0.484 ± 0.0051

Conditions | Normal melting temperature [°C]
[1], Crystal | 31.94 ± 0.52

Conditions | Molar enthalpy of transition or fusion [kcal/mol]
[2] | 4.83 ± 0.215
